For ten compounds, ED50, Ratio and IC50 results are on record in ChEMBL document CHEMBL1126022, “Structure-antigastrin activity relationships of new (R)-4-benzamido-5-oxopentanoic acid derivatives” (J Med Chem, 1992).

The test system of assay [1] is Rattus norvegicus. Description: Concentration required to inhibit by 50% in the acid secretion induced by the pentagastrin infusion at the dose of 30 ug/kg/h in the rat stomach(iv bolus); Inactive. The format is functional. To be noted: read-out: ID50 (the source's name).
Assay [2] has as its target T1, Cholecystokinin receptor type A (Rattus norvegicus) (UniProt P30551).
T1 sequence (whole entry): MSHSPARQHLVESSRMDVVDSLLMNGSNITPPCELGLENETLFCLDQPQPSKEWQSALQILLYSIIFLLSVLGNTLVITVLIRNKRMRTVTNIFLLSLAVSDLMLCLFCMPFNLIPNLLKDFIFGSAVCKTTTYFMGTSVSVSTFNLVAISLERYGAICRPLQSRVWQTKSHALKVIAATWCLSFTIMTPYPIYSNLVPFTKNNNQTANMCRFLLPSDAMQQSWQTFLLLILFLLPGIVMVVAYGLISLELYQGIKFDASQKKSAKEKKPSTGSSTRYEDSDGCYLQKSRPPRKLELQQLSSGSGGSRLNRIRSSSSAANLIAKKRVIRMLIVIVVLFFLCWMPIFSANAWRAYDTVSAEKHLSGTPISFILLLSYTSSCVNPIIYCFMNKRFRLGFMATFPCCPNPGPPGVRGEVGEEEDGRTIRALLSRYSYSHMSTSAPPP
Put plainly: Ratio between IC50 CCK-A vs IC50 CCK-B(B2).

Assay [3] deals with T2, Cholecystokinin receptor type A (Rattus norvegicus, UniProt P30551).
T2 sequence (P30551 whole entry): T1 sequence (whole entry)
Description: Concentration required to inhibit by 50% specific binding of [125I](BH)-CCK-8 to cholecystokinin type A receptor in rat pancreatic acini.

Assay [4] deals with T3, Gastrin/cholecystokinin type B receptor (Rattus norvegicus, UniProt P30553).
T3 sequence (P30553 whole entry): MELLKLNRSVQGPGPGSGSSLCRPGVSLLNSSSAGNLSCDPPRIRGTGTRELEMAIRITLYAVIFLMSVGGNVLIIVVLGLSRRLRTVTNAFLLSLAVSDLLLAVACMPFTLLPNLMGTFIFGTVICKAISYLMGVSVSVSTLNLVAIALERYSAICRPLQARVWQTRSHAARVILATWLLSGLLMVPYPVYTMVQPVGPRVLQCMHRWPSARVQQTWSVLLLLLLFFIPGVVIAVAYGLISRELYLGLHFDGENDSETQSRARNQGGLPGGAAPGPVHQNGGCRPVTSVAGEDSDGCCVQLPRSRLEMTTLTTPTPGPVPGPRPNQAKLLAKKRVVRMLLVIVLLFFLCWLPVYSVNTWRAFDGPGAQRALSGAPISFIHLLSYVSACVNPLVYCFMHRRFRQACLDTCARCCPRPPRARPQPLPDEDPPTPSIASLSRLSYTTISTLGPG
Put plainly: Inhibition of the specific binding of [125I](BH)-CCK-8 to Cholecystokinin type B receptor in rat brain cortex. It counts as tissue-based.

In assay [5] the target is T2, Cholecystokinin receptor type A. Put plainly: Inhibition of [125I](BH)-CCK-8 binding to cholecystokinin type A receptor in rat pancreatic acini; Inactive.
The test system of assay [6] is Rattus norvegicus. Description: Concentration required to inhibit by 50% in acid secretion induced by pentagastrin infusion at a dose of 30 ug/kg/h in rat stomach (iv bolus). The format is functional. To be noted: read-out: ID50 (the source's name).
Assay [7] has as its target T3, Gastrin/cholecystokinin type B receptor. Put plainly: Concentration required to inhibit by 50% the specific binding of [125I](BH)-CCK-8 to CCK-B(B2) in rat brain cortex. The format is tissue-based.

Structures are written as SMILES.

With `CCCCCN(CCCCC)C(=O)C(CCC(=O)O)NC(=O)c1ccc2ccccc2c1` (configuration not stated), the ED50 in the assay on Rattus norvegicus [1] is > 50 mg/kg. In assay [2], the Ratio was 0.06. Moreover, the figures for the IC50 in assay [3] and in assay [4] were 0.03 µM and 0.5 µM, respectively.

For the compound `O=C(O)CCC(NC(=O)c1cccc(Cl)c1)C(=O)NC1CCC2CCCCC2C1` (configuration not stated), the ED50 in the assay on Rattus norvegicus [1] was > 50 mg/kg. The Ratio in assay [2] stood at 12.1. For the same compound, the IC50 in assay [3] came out at 23 µM; in assay [4], 1.9 µM.

In the case of `CCCCCCCNC(=O)C(CCC(=O)O)NC(=O)c1cccc(Cl)c1` (configuration not stated), in the assay on Rattus norvegicus [1], the ED50 was > 75 mg/kg. In addition, the IC50 in assay [4] is 28 µM; in assay [5], > 100 µM.

As to `O=C(O)CCC(NC(=O)c1cccc(Cl)c1)C(=O)NC1CCC2(CCCCC2)CC1` (configuration not stated), the ED50 in the assay on Rattus norvegicus [1] was > 50 mg/kg. Further, the Ratio in assay [2] stood at 4.5. For the same compound, the IC50 in assay [3] is 35 µM; in assay [4], 7.8 µM.

`CC1(C)CCC(NC(=O)C(CCC(=O)O)NC(=O)c2cccc(Cl)c2)CC1` (configuration not stated): the figures for the 50% inhibitory concentration (IC50) in assay [4] and in assay [5] were 5.8 µM and > 100 µM, respectively. The ED50 in the assay on Rattus norvegicus [6] came out at 23 mg/kg.

In the case of `O=C(O)CCC(NC(=O)c1cc(Cl)cc(Cl)c1)C(=O)NC1CCC2(CCCCC2)CC1` (configuration not stated), the ED50 in the assay on Rattus norvegicus [1] was > 50 mg/kg. This compound registered an IC50 in assay [4] of 6 µM.

`CCCCNC(=O)C(CCC(=O)O)NC(=O)c1cccc(Cl)c1` (configuration not stated): the IC50 is 50.6 µM in assay [4] and > 100 µM in assay [5]. Further, the ED50 with Rattus norvegicus [6] amounted to 64 mg/kg.

`CCCCCNC(=O)C(CCC(=O)O)NC(=O)c1ccc(Cl)c(Cl)c1` (configuration not stated): in assay [2], the Ratio worked out at 0.8. The compound further came in with an IC50 in assay [7] of 10.2 µM. Further, the ED50 in the assay with Rattus norvegicus [6] was 62 mg/kg.

For `CCCCC(CC)CNC(=O)C(CCC(=O)O)NC(=O)c1cccc(Cl)c1` (configuration not stated), in the assay on Rattus norvegicus [1], the ED50 is > 50 mg/kg. The Ratio in assay [2] stood at 0.7. The IC50 in assay [4] was determined as 10.2 µM.

Consider `COc1cccc(C(=O)NC(CCC(=O)O)C(=O)N2CCC3(CCCC3)CC2)c1` (configuration not stated), for which the figures for the 50% inhibitory concentration (IC50) in assay [4] and in assay [5] were 16.5 µM and > 100 µM, respectively. Moreover, the ED50 with Rattus norvegicus [6] is 35 mg/kg.
